Key:
interleukin (IL)-15 = experiment: Small intestinal biopsy organ culture, qRT-PCR gene expression; type: cell-based; settings: human small intestine biopsies, 2 mM FBA vs medium alone
TMPRSS2 [1] = experiment: Human enterocytes cell line (Caco-2), qRT-PCR gene expression; type: cell-based; settings: Caco-2 cells, 2 mM FBA (maximal effective dose), 24 h of incubation
[2] = system: SARS-CoV-2 wild-type strain; type: cell-based; settings: Caco-2 pretreated with 2 mM FBA for 24 h, then 1 MOI wild-type SARS-CoV-2 for 72 h
ACE2 [3] = experiment: Human enterocytes cell line (Caco-2), qRT-PCR gene expression; type: cell-based; settings: Caco-2 cells, 2 mM FBA (maximal effective dose), 24 h of incubation
TNF-α [4] = experiment: Human respiratory epithelial cell line Calu3, qRT-PCR gene expression; type: cell-based; settings: Calu3 cells, 2 mM FBA, 24 h of incubation
IL-15 [5] = experiment: as above; type: cell-based; settings: Calu3 cells, 2 mM FBA, 24 h of incubation
ACE2 [6] = experiment: as above; type: cell-based; settings: Calu3 cells, 2 mM FBA, 24 h of incubation
ACE2 [7] = experiment: Small intestinal biopsy organ culture, qRT-PCR gene expression; type: cell-based; settings: human small intestine biopsies, 2 mM FBA for 24 h vs medium alone
[8] = system: tumor necrosis factor-alpha (TNF-α); experiment: as above; type: cell-based; settings: human small intestine biopsies, 2 mM FBA vs medium alone
MCP-1 [9] = experiment: Human respiratory epithelial cell line Calu3, qRT-PCR gene expression; type: cell-based; settings: Calu3 cells, 2 mM FBA, 24 h of incubation
IL-1β = experiment: SARS-CoV-2 infection model in Caco-2 cells, gene expression; type: cell-based, human; settings: Caco-2 pretreated with 2 mM FBA for 24 h, then 1 MOI wild-type SARS-CoV-2 for 72 h
IL-15 [10] = experiment: Human enterocytes cell line (Caco-2), qRT-PCR gene expression; type: cell-based; settings: Caco-2 cells, 2 mM FBA (maximal effective dose), 24 h of incubation
[11] = system: monocyte chemoattractant protein-1 (MCP-1); experiment: Small intestinal biopsy organ culture, qRT-PCR gene expression; type: cell-based; settings: human small intestine biopsies, 2 mM FBA vs medium alone
TMPRSS2 [12] = experiment: as above; type: cell-based; settings: human small intestine biopsies, 2 mM FBA for 24 h vs medium alone
TNF-α [13] = experiment: Human enterocytes cell line (Caco-2), qRT-PCR gene expression; type: cell-based; settings: Caco-2 cells, 2 mM FBA (maximal effective dose), 24 h of incubation
MCP-1 [14] = experiment: as above; type: cell-based; settings: Caco-2 cells, 2 mM FBA (maximal effective dose), 24 h of incubation
CXCL1 = experiment: SARS-CoV-2 infection model in Caco-2 cells, gene expression; type: cell-based, human; settings: Caco-2 pretreated with 2 mM FBA for 24 h, then 1 MOI wild-type SARS-CoV-2 for 72 h
Protocol: (§1) The SARS-CoV-2 infection was performed on Caco-2, at 15 days post-confluence, using SARS-CoV-2 wild-type strain. Before the infection, cells were incubated with 2 mM of FBA for 24 h at 37° C. 1 MOI of SARS-CoV-2 was added to the Caco-2 monolayer for 72 h. Then, SARS-CoV-2 inoculum was removed, the cells were washed three times with PBS 1× and were harvested for RNA, proteins extraction and for fluorescence microscopy analysis.
(§2) RNA samples were extracted, processed and analyzed as described above. Western blotting was performed on the total protein extracts of infected Caco-2 cells pretreated with FBA. For the total protein fraction, the harvested cells were washed in cold phosphate-buffered saline (PBS) and lysed in protein lysis buffer (RIPA). Protein concentrations in cell extracts were determined using the Bradford assay (BioRad, Milan, Italy). Thirty microgram total lysates were loaded onto 10% SDS-PAGE and then transferred to nitrocellulose membranes (ImmobilonR-Transfer Membrane, Tullagreen, Carrigtwohill, Co). The membranes were blocked with 5% non-fat milk in PBS, pH 7.6, 0.2% Tween 20 (PanReac AppliChem) and probed overnight at 4° C. with the specific primary antibodies for ACE2 (1:2000; Abcam). After washing in PBS, pH 7.6, 0.2% Tween 20, the membranes were incubated with a horseradish peroxidase-conjugated goat anti-rabbit antibody (1:2000; Abcam). The immunoblots were visualized using ECL detection kits, with enhanced chemiluminescence (Pierce, Rockford, IL, USA). A mouse β-actin antibody (1:5000; Elabscience) was used as the control for equal loading of total lysates.

VEGFβ = experiment: as above; type: cell-based, human; settings: Caco-2 pretreated with 2 mM FBA for 24 h, then 1 MOI wild-type SARS-CoV-2 for 72 h
Protocol: as §1, §2

MCP-1 [15] = experiment: as above; type: cell-based, human; settings: Caco-2 pretreated with 2 mM FBA for 24 h, then 1 MOI wild-type SARS-CoV-2 for 72 h
Protocol: as §1, §2

TMPRSS2 [16] = experiment: as above; type: cell-based, human; settings: Caco-2 pretreated with 2 mM FBA for 24 h, then 1 MOI wild-type SARS-CoV-2 for 72 h
Protocol: as §1, §2

TNF-α [17] = experiment: as above; type: cell-based, human; settings: Caco-2 pretreated with 2 mM FBA for 24 h, then 1 MOI wild-type SARS-CoV-2 for 72 h
Protocol: as §1, §2

TMPRSS2 [18] = experiment: Human respiratory epithelial cell line Calu3, qRT-PCR gene expression; type: cell-based; settings: Calu3 cells, 2 mM FBA, 24 h of incubation
ACE2 [19] = experiment: SARS-CoV-2 infection model in Caco-2 cells, expression (qRT-PCR, Western blotting); type: cell-based, human; settings: Caco-2 pretreated with 2 mM FBA for 24 h, then 1 MOI wild-type SARS-CoV-2 for 72 h
Protocol: as §1
RNA samples were extracted, processed and analyzed as described above. Western blotting was performed on the total protein extracts of infected Caco-2 cells pretreated with FBA. For the total protein fraction, the harvested cells were washed in cold phosphate-buffered saline (PBS) and lysed in protein lysis buffer (RIPA). Protein concentrations in cell extracts were determined using the Bradford assay (BioRad, Milan, Italy). Thirty microgram total lysates were loaded onto 10% SDS-PAGE and then transferred to nitrocellulose membranes (ImmobilonR-Transfer Membrane, Tullagreen, Carrigtwohill, Co). […]
Western blotting was performed on the total protein extracts of infected Caco-2 cells pretreated with FBA. […] Protein concentrations in cell extracts were determined using the Bradford assay (BioRad, Milan, Italy). […]

CCCC(=O)NC(Cc1ccccc1)C(N)=O (centres unmarked) [FBA, N-(1-carbamoyl-2-phenyl-ethyl) butyramide]
expression of interleukin (IL)-15 (interleukin (IL)-15): significant reduction | TMPRSS2 expression (TMPRSS2 [1]): significantly reduce | virus entry [2]: inhibit | ACE2 expression (ACE2 [3]): significantly reduce | expression of TNF-α (TNF-α [4]): downregulate | expression of IL-15 (IL-15 [5]): downregulate | expression of ACE2 (ACE2 [6]): downregulate | expression of ACE2 (ACE2 [7]): significantly decreased | expression of TNF-α [8]: significant reduction | expression of MCP-1 (MCP-1 [9]): downregulate | expression of IL-1β (IL-1β): inhibit | IL-15 expression (IL-15 [10]): significantly reduce | expression of MCP-1 [11]: significant reduction | expression of TMPRSS2 (TMPRSS2 [12]): significantly decreased | TNF-α expression (TNF-α [13]): significantly reduce | MCP-1 expression (MCP-1 [14]): significantly reduce | expression of CXCL1 (CXCL1): inhibit | expression of VEGFβ (VEGFβ): inhibit | expression of MCP-1 (MCP-1 [15]): inhibit | TMPRSS2 expression (TMPRSS2 [16]): inhibit | expression of TNF-α (TNF-α [17]): inhibit | expression of TMPRSS2 (TMPRSS2 [18]): downregulate | ACE2 expression (ACE2 [19]): inhibit

— patent US20240180878A1, “AMIDE DERIVATIVES OF BUTYRIC ACID FOR USE IN THE TREATMENT OR PREVENTION OF SARS-COV-2 INFECTION” (RHEA INNOVATIONS S.R.L., priority 2021, published 2024)
